Entries after “also recorded” stand apart in the source; their conditions may differ.
What was measured:
Citrobacter rodentium [1] = assay: Citrobacter rodentium infection (bioluminescence, tissue CFU), Example 1; assay type: in vivo, mouse
Procedure: (§1) To induce hyperglycemia, streptozotocin (STZ, Sigma-Aldrich) was diluted freshly in PBS and injected i.p. at 100 mg/kg at two consecutive days. Control mice were injected with PBS. Serum glucose measurements were performed using glucose strips (Perrigo). Hyperglycemic mice were used for further experimentation 2-3 weeks after STZ injection). For continuous insulin administration, ALZET osmotic pumps were used. Pumps were implanted subcutaneously in the back of the mice for 4 weeks. Insulin was delivered at 0.25 U/day. 2-deoxyglucose (2-DG) was injected i.p. twice daily at 5 mg per injection as previously described (47). Injections were performed for 10 consecutive days. Leptin antagonist was administered daily by intraperitoneal injection of 25 mg/kg as previously described (18).
Mice were infected by oral gavage with 200 μl of an overnight culture of LB containing approximately 1×10^9 colony-forming units (CFU) of a kanamycin-resistant, luciferase-expressing derivative of C. rodentium DBS100 (ICC180) as previously described (16). For in vivo bioluminescent imaging, mice were anesthetized with Ketamine/Xylazine. Bioluminescence was quantified using an IVIS2000 instrument and Living Image software (Perkin Elmer). For ex vivo luminescence analysis, colons were resected, extensively washed from all fecal matter and immediately imaged. For CFU counts, tissues were collected, weighed and homogenized in 1 ml of sterile PBS. Tissue homogenates were serially diluted in PBS and plated on to LB kanamycin plates, incubated overnight at 37° C., and bacterial colonies were enumerated the following day, normalizing them to the tissue weight.

[2] = Serum glucose measurement; assay type: in vivo, mouse
Procedure: as §1

[3] = tested on: intestinal epithelial adherence junctions; assay: Immunofluorescence staining of colon junctions (E-cadherin, ZO-1); assay type: in vivo, mouse
Procedure: (§2) Colon samples were extensively washed and fixed and 4% paraformaldehyde. Samples were washed, paraffin-embedded and sectioned. Paraffin sections were de-paraffinized and antigen-retrieved in 10 mM sodium citrate, pH 6. Samples were incubated in PBS containing 20% (v/v) normal horse serum and 0.2% (v/v) Triton X-100 for 1 h; and then incubated over-night with rabbit anti-ZO-1 (Invitrogen 40-2200) primary antibody or rabbit anti E-cadherin (Cell Signaling 24E10). Sections were washed and incubated for 1 hour with alexa 488-conjugated donkey anti Rabbit antibody. Alternatively, sections were stained with Ki67 to indicate proliferating cells.

[4] = tested on: colonic epithelial barrier; assay: Trans-epithelial flux (Ussing chamber, FITC-dextran); assay type: in vivo, mouse; details: STZ-treated mice, steady-state conditions
Procedure: On the day of the assay, 4 kDa fluorescein isothiocyanate (FITC)-dextran was dissolved in phosphate buffered saline (PBS) to a concentration of 80 mg/ml. Mice were fasted for 4 hours prior to gavage with 150 μl dextran. Mice were anesthetized 3 hours following gavage and blood was collected, centrifuged at 1,000×g for 12 min at 4° C. Serum was collected and fluorescence was quantified at an excitation wavelength of 485 nm and emission wavelength of 535 nm.
Epithelial resistance was measured using an Ussing chamber system (Warner Instruments P2300) according to the manufacturer's instructions. In brief, EasyMount chambers were calibrated, colonic tissue was excised from mice and immediately mounted, and voltage clamp recordings were performed. Tissues were maintained at 37° C. in physiological salt solution throughout the duration of the recording.

Salmonella Typhimurium = Salmonella Typhimurium infection; assay type: in vivo, mouse; details: STZ-treated mice, oral infection
Procedure: For oral infections, mice were pretreated with 50 mg/ml streptomycin one day prior to oral gavage of 10^8 CFU of SPI-II-deficient Salmonella Typhimurium (49). For systemic infections, mice were injected 10^4 CFU of Salmonella Typhimurium by intraperitoneal injection as previously described (50). One week after infection, colonization was assessed by bacterial plating on LB streptomycin plates, incubated overnight at 37° C., and bacterial colonies were enumerated the following day, normalizing them to the tissue weight.

[5] = tested on: intestinal epithelial cells; assay: Epithelial turnover (Ki67 staining, cell viability by flow cytometry); assay type: in vivo, mouse; details: STZ-treated mice vs controls
Procedure: as §2
For viability measurements, isolated intestinal epithelial cells were stained with EpCAM, CD45 and propidium iodide. Cells were analyzed on a BD-LSRFortessa cytometer. All antibodies were obtained from Biolegend.

[6] = Intestinal inflammatory state (H&E staining, colonic cytokine gene expression); assay type: in vivo, mouse; details: STZ-treated mice vs controls
[7] = tested on: tight junctions of Caco2 cells; assay: Caco2 tight junction morphology (cingulin or ZO-1 staining, tortuosity); assay type: cell-based, human
Procedure: (§3) CaCo-2 cells were purchased from ATCC. Cells were routinely grown in regular tissue culture medium (DMEM, 10% FCS, penicillin/streptomycin, GlutaMAX). For experiments with differing glucose concentrations, cells were routinely cultured in low-glucose DMEM (1 g/l glucose). Cells were seeded onto 96-well glass-bottom plates coated with either fibronectin or collagen 70 000 cells/well and allowed to grow for 24 hours to form confluent monolayer before indicated treatments.
(§4) For high resolution images of manually selected representative fields, a DeltaVision wide field fluorescent microscope (GE Healthcare) equipped with 40×UPlanFLN or 60×/1.42 PlanApo N oil objective (Olympus) was used. For multi-well plate scanning, the following automated imaging stations were used: DeltaVision microscope with plate scanning regiment, Hermes imaging station (IDEA bio-Medical) or ImagExpress microXL imaging station (Molecular Devices) equipped by 40× air objectives. In all cases in order to cover the curvature of apical surface of epithelial monolayer 5 μm thick z-stack was acquired around the tight junction plane (identified by best focus algorithm) and resulting image was generated as a maximum projection of all optical sections.
Cell images were segmented using Morphological Segmentation ImageJ plug-in and junction tortuosity was calculated as a ratio between junction length and Euclidian distance between its ends.

[8] = tested on: focal adhesions of Caco2 cells; assay: Caco2 cell-matrix focal adhesions (paxillin staining); assay type: cell-based, human; details: 10 mM acetyl-proline, 1 mM putrescine, 10 mM histamine, 5 mM spermine
Procedure: as §3, §4

Caco2 cells [9] = assay: Traction force microscopy; assay type: cell-based, human; details: Caco2 islands on polyacrylamide hydrogels, 24 hours treatment
Procedure: SoftTrac 6 well plates with pre-made collagen coated 12 kPa hydrogels containing embedded 0.2 μm fluorescent beads were purchased from Matrigen. 200,000 cells per well were plated and allowed to grow for 24 hours to form epithelial islands, treated with the indicated metabolite for another 24 hours and live-imaged using DeltaVision microscope equipped with environmental chamber. After acquisition of cell and fluorescent bead images in steady state conditions, cells were detached with trypsin and imaging of beads was repeated in a relaxed state. Displacement map generation and force calculations were performed using MatLab script described in Butler et al. Am J Physiol Cell Physiol. 2002.

Caco2 cells [10] = details: 10 mM histamine
Procedure: For immunofluorescent staining, cells were permeabilized with 0.5% Triton ×100 in 3% paraformaldehyde for 3 minutes and fixed with 3% paraformaldehyde for an additional 30 minutes. Tight junction labeling was performed with either rabbit anti-cingulin antibodies or with anti-zo1 mouse monoclonal antibodies (BD Transduction Laboratories). Focal adhesions were labeled with either anti-paxillin mouse monoclonal antibodies (BD Transduction Laboratories) or with anti-zyxin rabbit polyclonal antibodies. Adherens junctions were labeled with anti-β-catenin rabbit polyclonal antibodies (Sigma). The following secondary, fluorescently labeled antibodies (Invitrogen) were used: Alexa Fluor 488 goat anti-mouse or anti-rabbit antibodies for tight junction visualization and Alexa Fluor 647 goat anti-mouse or anti-rabbit antibodies for focal adhesions or adherens junctions visualization. Actin was labeled with TRITC-phalloidin (Sigma) and nuclei with DAPI.

Citrobacter rodentium [11] = assay type: in vivo, mouse; details: putrescine plus 30 mg/ml taurine in drinking water
Procedure: For putrescine treatment, mice received putrescine by oral gavage with a dose of 200 mg/kg twice daily for 10 days prior to and during DSS treatment or Citrobacter rodentium infection.
A kanamycin-resistant and luciferase-expressing derivative of Citrobacter rodentium DBS100 (ICC180) was used for infection as previously described (Thaiss et al., Science. 2018 Mar. 23; 359(6382):1376-1383).
Mice were infected with 200 μl solution containing approximately 1×10^9 colony-forming units (CFU) of overnight cultured bacteria by oral gavage. Infection was monitored by enumerating stool CFU and measuring abdominal bioluminescent. For in vivo bioluminescent imaging, mice were anesthetized and bioluminescence was measured using an IVIS2000 instrument and Living Image software (Perkin Elmer). For ex vivo luminescence quantification, the whole colons were dissected, extensively washed from all luminal contents, longitudinally cut open and immediately imaged. For CFU counts, stool or tissues were collected, weighed and homogenized in sterile phosphate buffered saline (PBS−/−). Homogenates were then serially diluted in PBS−/− and plated on LB kanamycin plates, incubated overnight at 37° C. Bacterial CFUs were counted the next day, normalizing them to the stool or tissue weight.

[12] = tested on: microbial pattern recognition receptor (PRR) ligands; assay: Quantification of microbial products at systemic sites (PRR reporter cell lines); assay type: in vivo, mouse; details: STZ-treated mice given the agent (insulin 0.25 U per day; 2-DG i.p. twice daily 5 mg)
Procedure: as §1, with “(18). The following PRR reporter cell lines were obtained from Invivogen (HEK-Blue TLR and NLR reporter cell lines): TLR2, TLR3, TLR4, TLR5, TLR7, TLR9, NOD1, NOD2. Extracts from spleen, liver, and serum were homogenized and added to reporter cell lines incubated with HEK-Blue detection medium (Invivogen) according to the manufacturer's instructions.” for “(18).”

intestinal microbiota = assay: Taxonomic microbiota analysis (16S rDNA sequencing); assay type: in vivo, mouse; details: hyperglycemic (STZ-treated) mice, insulin treatment
Procedure: Frozen fecal samples were processed for DNA isolation using the MoBio PowerSoil kit according to the manufacturer's instructions. For the 16S rRNA gene PCR amplification, 1 ng of the purified fecal DNA was used for PCR amplification. Amplicons spanning the variable region V3/4 of the 16S rRNA gene were generated by using primers: Fwd 5′-[…]-3′ (SEQ ID NO: 1), Rev 5′-[…]-3′ (SEQ ID NO: 2). The reactions were subsequently pooled and cleaned (PCR clean kit, Promega), and the PCR products were then sequenced on an Illumina MiSeq with 500 bp paired-end reads. The reads were then processed using the QIIME analysis pipeline as described (55, 56). In brief, fasta quality files and a mapping file indicating the barcode sequence corresponding to each sample were used as inputs, reads were split by samples according to the barcode, taxonomical classification was performed using the RDP-classifier, and an OTU table was created. Closed-reference OTU mapping was employed using the Greengenes database. Rarefaction was used to exclude samples with insufficient count of reads per sample. Sequences sharing 97% nucleotide sequence identity in the 16S region were binned into operational taxonomic units (97% ID OTUs). For beta-diversity, unweighted UniFrac measurements were plotted according to the two principal coordinates based on 10,000 reads per sample. […]

[13] = mice treated with the agent alone

CN(N=O)C(=O)N[C@H]1C(O)O[C@H](CO)[C@@H](O)[C@@H]1O (mixture of isomers) [STZ, streptozotocin]
C. rodentium infection and systemic spread (Citrobacter rodentium [1]; [13]): severe C. rodentium infection and systemic translocation | blood glucose levels [2, 13]: hyperglycemia was induced | intestinal epithelial adherence junctions ([3]; STZ-treated mice, steady-state conditions): dysfunction of intestinal epithelial adherence junctions | trans-epithelial flux [4]: enhanced trans-epithelial flux | intestinal luminal growth of Salmonella (Salmonella Typhimurium): comparable to vehicle-treated controls | systemic colonization by Salmonella (Salmonella Typhimurium): enhanced systemic colonization | epithelial proliferation or cell death [5]: not affected | inflammatory state in the intestine [6]: did not provoke an overt inflammatory state

NCCc1c[nH]cn1 [histamine]
recovery of the TJs after washout ([7]; CaCo2 cells pretreated 24 hrs with disruptor, then regular culture medium for 24 hours): nearly complete recovery of the TJs | TJ structure after disruptor treatment ([7]; CaCo2 cells, 24 hrs, LPS 300 ng/ml, Histamine 10 mM, putrescine 1 mM): pronounced TJ disruption | effect on tight junctions in metabolite screen ([7]; Caco2 cells): Disruption | tight junction disruption phenotype (type 1 zipper-like, type 2 flower-like) ([7]; Caco2 cells, known IBD mediators): type 2 | tight junction morphology ([7]; Caco2 cells, 10 mM acetyl-proline, 1 mM putrescine, 10 mM histamine, 5 mM spermine): distortion of tight junctions geometry; also recorded: distortion of tight junction morphology | tight junction phenotype in combination with LPS ([7]; Caco2 cells, type 2 disruptor plus LPS): double effect | focal adhesions size [8]: increase of focal adhesions size | forces applied to the substrate (cell contractility) (Caco2 cells [9]): increases cell contractility | apical actin-enriched structures (Caco2 cells [10]): assembly of actin fibers in the same plane where tight junctions are located

NCCS(=O)(=O)O [taurine]
recovery of TJ structure on replacement of disruptors with stabilizer ([7]; CaCo2 cells pretreated with LPS, histamine or putrescine, even in the presence of the disruptors): full recovery of TJ structure | effect on tight junctions in metabolite screen ([7]; Caco2 cells): Stabilization | tight junction distortion caused by LPS ([7]; Caco2 cells, 10 mM taurine, 1 mM tryptamine, 10 mM L-homo-serine, in combination with LPS): abolish tight junction distortion caused by LPS treatment alone | disruptive effect of putrescine in mice with C. rodentium infection (Citrobacter rodentium [11]): restoration of the disruptive effect of putrescine

insulin
enhanced C. rodentium growth and pathogenic translocation / host defense against C. rodentium (Citrobacter rodentium [1]; STZ-treated mice given the agent (insulin 0.25 U per day; 2-DG i.p. twice daily 5 mg)): prevented | systemic dissemination of microbial products [12]: prevented | serum glucose levels ([2]; STZ-treated mice, 0.25 U per day insulin via pumps for 4 weeks): restored normoglycemic levels | loss of adherence junction integrity ([3]; STZ-treated mice given the agent): prevented | taxonomic change in the configuration of the intestinal microbiota (intestinal microbiota): corrected

Source: patent publication US20200368322A1, “METHODS OF IDENTIFYING AND USING AGENTS FOR TREATING DISEASES ASSOCIATED WITH INTESTINAL BARRIER DYSFUNCTION” (Yeda Research and Development Co. Ltd., priority 2018, published 2020)
